SMILES strings stand for the structures. “Also recorded” adds a separate entry of the source. Residues, ends and D or L forms follow the SMILES beside them.

Experiment [1] deals with mKate2-tagged Kv1.3 channels. Nature of the experiment: A-HgTx wash-off and effect on channel distribution, mKate2-tagged Kv1.3 in HEK293 cells. The experiment is classed as binding, human. The procedure: (§1) Figure 4 Confocal imaging of A-HgTx interactions (green) with mKate2-tagged Kv1.3 channels (red) transiently expressed in HEK293 cells. (A–D) Binding (A,B) of A-HgTx (2 nM) to Kv1.3-K and its displacement (C,D) by HgTx1 (40 nM). (E–H) Binding (E,F) of A-HgTx (2 nM) to K-Kv1.3 and its displacement (G,H) by HgTx1 (40 nM). (I–L) Binding (I,J) of A-HgTx (2 nM) to K-ΔKv1.3 and its displacement (K,L) by HgTx1 (40 nM). (M,N) Control measurement of the binding of A-HgTx (2 nM) to intact (no transfection) HEK293 cells. (O,P) Control measurement of the background signal in the wavelength range corresponding to the A-HgTx emission (O) from HEK293 cells expressing K-ΔKv1.3 (without addition of A-HgTx). The scale bar is equal to 20 μm. (A,E,I,M,C,G,K,O) Distribution of A-HgTx. (B,F,J,N,D,H,L,P) Distribution of mKate2-tagged Kv1.3 channels.
In A-HgTx binding experiments, cells were incubated with A-HgTx (0.15–4 nM) for 30 min (37 °C, 5% CO2) in the complete medium. […]
(§2) Fluorescence of mKate2-fused hKv1.3 was excited at the 561 nm wavelength and recorded in the 650–700 nm range. Fluorescence of A-HgTx was excited at the 488 nm wavelength and recorded in the 495–535 nm range. Distributions of A-HgTx and mKate2 fluorescence in cells were imaged using sequential scanning to avoid interference of intrinsic cellular fluorescence excited at the 488 nm with the mKate2 fluorescence.

For experiment [2], the system named is intact HEK293 cells that do not express mKate2-tagged Kv1.3. Nature of the experiment: Control: A-HgTx binding to intact HEK293 cells. The settings on record: 2 nM A-HgTx; no transfection; confocal imaging. The protocol:
as §1, with “channels. […]” for “channels.”
as §2

The target in experiment [3] is T1, K-ΔKv1.3 (N-terminally truncated human Kv1.3 tagged with mKate2) (Homo sapiens, UniProt P22001). Briefly: Confocal imaging of A-HgTx binding and displacement, K-ΔKv1.3 in Neuro-2A cells. Set-up: expressed in transfected cells; host or cells: HEK293 (transient transfection with pmKate2-KCNA3-del). The settings on record: 2 nM A-HgTx. The protocol:
Mouse Neuro-2A neuroblastoma cells were purchased from the Russian collection of cell cultures (Institute of Cytology, Saint Petersburg, Russia). Cells were cultured in DMEM (Paneco, Russia) supplemented with 10% fetal bovine serum (PAA Laboratories, Austria) and penicillin–streptomycin 100 U/mL. Cells were subcultured twice a week. Cells were plated at a density of 3×10^4 cells per well on cover glasses coated with poly-D-lysine and 24 h latter subjected to the transfection with plasmid pmKate2-KCNA3-del as described above.
Figure S5. Confocal imaging of A-HgTx interactions with K-ΔKv1.3channels transiently expressed in Neuro-2A cells. (A, B) Distri-
(20 nM) from the complexes with K-ΔKv1.3 at the membrane of cells. Scale bar is 20 µm. Green and red colors – fluorescence of A-
HgTx and K-ΔKv1.3, respectively.
Figure S6. Concentration dependence of A-HgTx binding to K-Kv1.3 on a cell membrane that was measured as the dependence of
Rav on the concentration L of A-HgTx added to HEK293 cells transiently transfected with K-Kv1.3.
(also on this page, place not known: Neuro -2A K -ΔKv1.3. A -HgTx K -ΔKv1.3 0.0 0.5 1.0 1.5 2.0 0.0 0.5 1.0 1.5 L, nM Rav) […]

The subject of experiment [4] is Kv1.3-K (human Kv1.3 C-terminally tagged with mKate2). Nature of the experiment: Confocal imaging of A-HgTx binding and displacement, Kv1.3-K in HEK293 cells. The protocol: as §1, with “channels. […]” for “channels.”
as §2

In experiment [5] the target is T2, K-Kv1.3 (human Kv1.3 N-terminally tagged with mKate2) (Homo sapiens, UniProt P22001).
T2 construct: membrane expression of the full-length human Kv1.3 was poor in X. oocytes, deletion of N-terminal M1-D52 residues boosted; expressed in transfected cells; host or cells: HEK293 (transient transfection with pmKate2-KCNA3)
Briefly: Confocal imaging of A-HgTx binding and displacement, K-Kv1.3 in HEK293 cells. The procedure: as §1
(§3) KCNA3 gene encoding human Kv1.3 channel (hKv1.3, Accession number NP_002223.3) was a generous gift from Dr. A. Vassilevski. […]
as §2

For experiment [6], the target named is T1, K-ΔKv1.3 (N-terminally truncated human Kv1.3 tagged with mKate2). Nature of the experiment: Whole-cell patch-clamp, K-ΔKv1.3 expressed in Neuro-2A cells. The experiment is classed as cell-based. On the set-up: expressed in transfected cells. The conditions noted are these: N2a, +50 mV, 20–25 °C, pH 7.4, mean ± SEM. In general terms: Patch clamp records ionic current or voltage across a cell membrane.
Protocol: The K-ΔKv1.3 channel and A-HgTx were characterized by a whole-cell patch-clamp technique. Taking into account that “the kinetic properties of the homomeric Kv channels are largely consistent across host cell lines” [42], we studied K-ΔKv1.3 presented at the membrane of mouse Neuro-2A neuroblastoma cells, which are routinely used in our electrophysiological experiments.
The ion currents were analyzed in the whole-cell configuration by depolarizing steps from −70 to 70 mV in 20 mV increments from a holding potential of −40 mV.
Test pulses having duration of 200 ms were applied stepwise with an interval of 20 s with a step of 20 mV from −70 to +70 mV then returning to a holding potential. […] Data were averaged (mean ± SEM) over ten (E) and twelve (F) cells.
(A,B) Representative series of currents before (A) and after addition of 2 nM A-HgTx (B). […]
K-ΔKv1.3-channel ion currents were recorded by the patch-clamp technique using an EPC-10 amplifier (HEKA Elektronik, Germany) in a standard whole-cell configuration. […]
Briefly, in 24–48 h after transfection, cover glasses with attached Neuro2a cells were placed in a chamber with an extracellular solution (mM): 140 NaCl, 2.8 KCl, 2 MgCl2, 2 CaCl2, 10 HEPES and 10 glucose (pH 7.4) and perfused continuously. Selection of cells for the measurements was guided by membrane fluorescence of K-ΔKv1.3. […]

The target is the same in experiment [7]. Nature of the experiment: Confocal imaging of A-HgTx binding and displacement, K-ΔKv1.3 in HEK293 cells. On the set-up: expressed in transfected cells; host or cells: HEK293 (transient transfection with pmKate2-KCNA3-del). The protocol: as §1, §3, §2
For experiment [8] the target is unchanged. Briefly: Fluorescent competitive binding assay (FCBA), displacement of A-HgTx from K-ΔKv1.3. Set-up: expressed in transfected cells; host or cells: HEK293 (transient transfection with pmKate2-KCNA3-del). The settings on record: living HEK293 cells; 2 nM A-HgTx; result in words.
Description: To quantitatively characterize formation of complexes between A-HgTx and K-ΔKv1.3 on cell membranes, the confocal images of A-HgTx bound at the membrane of the K-ΔKv1.3 presenting cells were subjected to the treatment procedure as follows. Regions of interest (ROIs) corresponding to the plasma membranes stained with K-ΔKv1.3 were selected. Using a set of these ROIs and a threshold procedure (to null a background signal from pixels without K-ΔKv1.3 signal), the binary (0;1) mask that describes membranous localization of K-ΔKv1.3 was created. The images of K-ΔKv1.3 and A-HgTx distribution were multiplied by the corresponding mask. Next, average intensities of fluorescence of K-ΔKv1.3 (Ici) and A-HgTx (Ili) were calculated for each ROI (i.e., for each i-cell), and a ratio Ri was calculated as follows. Ri = (Ili − Ilb)/(Ici − Icb) (1) where Ilb and Icb are intensities of background signals in the fluorescent images of A-HgTx and Kv1.3 channels, respectively. Calculating Ri (i.e., normalizing A-HgTx intensity to that of K-ΔKv1.3), a correction was introduced for variations in a level of K-ΔKv1.3 expression on the membrane of particular cells. Ri values of 15–20 cells were averaged to obtain the Rav value, and a standard deviation was calculated.
Concentration of A-HgTx was 2 nM. Concentration of pore blockers C varied as indicated in the graph.
When Kd of A-HgTx and IC50 for the studied compound are known, the apparent dissociation constant Kap of complexes between the compound and channel can be calculated using the Cheng-Prusoff equation [50]:Kap = IC50/(1 + L/Kd)(4) where L is the concentration of A-HgTx in the competitive binding experiment.
In A-HgTx binding experiments, cells were incubated with A-HgTx (0.15–4 nM) for 30 min (37 °C, 5% CO2) in the complete medium. In competitive binding experiments, cells were incubated with A-HgTx (2 nM) and selected pore blocker at variable concentrations (0.5–100 nM for recombinant peptides and 1–20 mM for TEA) for 30 min (37 °C, 5% CO2) in the complete medium.
Experiments with HEK293 cells were performed with a laser scanning confocal microscope Leica-SP2 (Leica Microsystems GmbH, Wetzlar, Germany). The water-immersion 63×/1.2 NA HCX PL APO objective was used.
Each experimental point in the curves describing interaction A-HgTx with mKate2-tagged Kv1.3 channels is an average over 15–25 treated images of cells. […]
The mark [9] stands for this setting: 2 nM A-HgTx, living HEK293 cells.
Where [10] appears, read: HgTx1 40 nM vs A-HgTx 2 nM, HEK293 cells.

T1 sequence (P22001 53-575 limits assumed, stated change not applied): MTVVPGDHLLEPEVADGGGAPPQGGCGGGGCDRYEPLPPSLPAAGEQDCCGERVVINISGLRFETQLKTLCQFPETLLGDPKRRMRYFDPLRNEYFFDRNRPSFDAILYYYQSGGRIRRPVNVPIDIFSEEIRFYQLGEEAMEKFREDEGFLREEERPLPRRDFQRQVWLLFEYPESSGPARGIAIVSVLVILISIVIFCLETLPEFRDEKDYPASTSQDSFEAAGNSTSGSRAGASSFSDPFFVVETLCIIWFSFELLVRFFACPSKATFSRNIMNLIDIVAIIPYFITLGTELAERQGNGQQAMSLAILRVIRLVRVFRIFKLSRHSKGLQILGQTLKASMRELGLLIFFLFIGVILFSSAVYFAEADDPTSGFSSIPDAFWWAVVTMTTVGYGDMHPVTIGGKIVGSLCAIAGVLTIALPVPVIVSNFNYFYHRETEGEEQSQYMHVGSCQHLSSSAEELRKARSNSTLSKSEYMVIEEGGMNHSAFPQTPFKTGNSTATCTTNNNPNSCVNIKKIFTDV
T2 sequence (P22001 whole entry, the tested form may be a part): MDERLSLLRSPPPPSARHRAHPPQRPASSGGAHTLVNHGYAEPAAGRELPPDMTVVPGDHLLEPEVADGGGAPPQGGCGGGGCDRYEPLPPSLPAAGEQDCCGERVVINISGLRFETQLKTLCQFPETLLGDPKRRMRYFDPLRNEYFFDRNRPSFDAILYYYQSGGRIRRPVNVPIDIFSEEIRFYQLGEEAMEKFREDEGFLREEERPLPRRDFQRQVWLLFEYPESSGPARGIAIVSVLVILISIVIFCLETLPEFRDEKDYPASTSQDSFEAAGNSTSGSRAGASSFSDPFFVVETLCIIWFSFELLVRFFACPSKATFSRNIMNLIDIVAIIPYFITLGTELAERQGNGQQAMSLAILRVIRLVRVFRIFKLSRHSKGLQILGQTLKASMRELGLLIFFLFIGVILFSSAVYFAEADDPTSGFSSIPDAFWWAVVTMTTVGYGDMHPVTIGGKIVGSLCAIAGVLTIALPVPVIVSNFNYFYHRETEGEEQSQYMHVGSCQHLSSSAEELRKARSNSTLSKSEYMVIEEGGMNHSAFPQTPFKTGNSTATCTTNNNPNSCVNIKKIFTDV

As usually defined, the inhibition is the drop in the measured response relative to a control, in per cent. Regarding `CC[C@H](C)[C@@H]1NC(=O)CNC(=O)[C@H](Cc2ccccc2)NC(=O)[C@H](CCC(N)=O)NC(=O)[C@H](C)NC(=O)[C@H](CCCCN)NC(=O)[C@@H]2CSSC[C@@H](C(=O)N[C@@H](Cc3ccc(O)cc3)C(=O)N3CCC[C@H]3C(=O)N[C@@H](Cc3c[nH]cn3)C(=O)O)NC(=O)[C@H](CCCCN)NC(=O)[C@@H]3CSSC[C@H](NC(=O)[C@H](CCC(N)=O)NC(=O)[C@H](CCCCN)NC(=O)[C@@H]4CCCN4C(=O)[C@H](CO)NC(=O)[C@H]([C@@H](C)O)NC(=O)[C@@H](NC(=O)[C@H](CCCCN)NC(=O)[C@@H](NC(=O)[C@H](CC(=O)O)NC(=O)[C@@H](NC(=O)[C@@H](NC(=O)[C@@H](NC(=O)CCCN(C)C(=O)c4ccccc4-c4c5ccc(=N)c(S(=O)(=O)O)c-5oc5c(S(=O)(=O)O)c(N)ccc45)[C@@H](C)O)C(C)C)[C@@H](C)CC)C(C)C)CSSC[C@H](NC(=O)[C@H](CCCCN)NC(=O)[C@H](C)NC(=O)CNC(=O)[C@H](C)NC(=O)[C@H](CCCNC(=N)N)NC1=O)C(=O)N[C@@H](CCSC)C(=O)N[C@@H](CC(N)=O)C(=O)NCC(=O)N[C@@H](CCCCN)C(=O)N3)C(=O)N[C@@H](CC(C)C)C(=O)N1CCC[C@H]1C(=O)N1CCC[C@H]1C(=O)N2` [A-HgTx] (HELM PEPTIDE1{[N=c1ccc2c(-c3ccccc3C(=O)[*:2])c3ccc(N)c(S(=O)(=O)O)c3oc-2c1S(=O)(=O)O].[CN(CCCC(=O)[*:2])[*:1]].T.V.I.D.V.K.C.T.S.P.K.Q.C.L.P.P.C.K.A.Q.F.G.I.R.A.G.A.K.C.M.N.G.K.C.K.C.Y.P.H}$PEPTIDE1,PEPTIDE1,9:R3-31:R3|PEPTIDE1,PEPTIDE1,15:R3-36:R3|PEPTIDE1,PEPTIDE1,19:R3-38:R3$$$V2.0; C-terminus assumed), in experiment [1] (nano-molar A-HgTx, HEK293 cells, confocal imaging), the “effect of A-HgTx binding on membrane distribution of the Kv1.3 channels” value is on record as “does not lead to noticeable changes”. Moreover, the “dissociation of A-HgTx from the cell membrane on washing” value in experiment [1] (washing HEK293 cells with fresh medium, data not shown) is given as “rapid (in a few minutes) dissociation”. In experiment [2], the “binding of A-HgTx at the membrane of intact HEK293 cells (non-specific binding)” value is given as “negligible non-specific binding; also recorded: No binding of A-HgTx was observed”. Also, in experiment [3], the “binding of A-HgTx at the membrane of K-ΔKv1.3 expressing Neuro-2A cells” value is reported as “bound at the membrane of cells expressing K-ΔKv1.3”. Also, the “binding of A-HgTx to Kv1.3-K” value in experiment [4] (setting [9]) is on record as “bind A-HgTx”. Besides, the “binding of A-HgTx to K-Kv1.3” value in experiment [5] (setting [9]) is on record as “bind A-HgTx”. For the same compound, the inhibition at 0.002 µM in experiment [6] (2 nM A-HgTx, n = 10, read-out: inhibition of K-ΔKv1.3 currents by A-HgTx) turned out to be 42 ± 6%. The inhibition at 0.01 µM in experiment [6] (10 nM A-HgTx, n = 3, read-out: inhibition of K-ΔKv1.3 currents by A-HgTx) was 83 ± 3%. Further, in experiment [7] (setting [9]), the “binding of A-HgTx to K-ΔKv1.3” value is reported as “bind A-HgTx”.
For the compound `CC[C@H](C)[C@@H]1NC(=O)CNC(=O)[C@H](Cc2ccccc2)NC(=O)[C@H](CCC(N)=O)NC(=O)[C@H](C)NC(=O)[C@H](CCCCN)NC(=O)[C@@H]2CSSC[C@@H](C(=O)N[C@@H](Cc3ccc(O)cc3)C(=O)N3CCC[C@H]3C(=O)N[C@@H](Cc3c[nH]cn3)C(=O)O)NC(=O)[C@H](CCCCN)NC(=O)[C@@H]3CSSC[C@H](NC(=O)[C@H](CCC(N)=O)NC(=O)[C@H](CCCCN)NC(=O)[C@@H]4CCCN4C(=O)[C@H](CO)NC(=O)[C@H]([C@@H](C)O)NC(=O)[C@@H](NC(=O)[C@H](CCCCN)NC(=O)[C@@H](NC(=O)[C@H](CC(=O)O)NC(=O)[C@@H](NC(=O)[C@@H](NC(=O)[C@@H](N)[C@@H](C)O)C(C)C)[C@@H](C)CC)C(C)C)CSSC[C@H](NC(=O)[C@H](CCCCN)NC(=O)[C@H](C)NC(=O)CNC(=O)[C@H](C)NC(=O)[C@H](CCCNC(=N)N)NC1=O)C(=O)N[C@@H](CCSC)C(=O)N[C@@H](CC(N)=O)C(=O)NCC(=O)N[C@@H](CCCCN)C(=O)N3)C(=O)N[C@@H](CC(C)C)C(=O)N1CCC[C@H]1C(=O)N1CCC[C@H]1C(=O)N2` [HgTx1, hongotoxin 1, reference compound] (HELM PEPTIDE1{T.V.I.D.V.K.C.T.S.P.K.Q.C.L.P.P.C.K.A.Q.F.G.I.R.A.G.A.K.C.M.N.G.K.C.K.C.Y.P.H}$PEPTIDE1,PEPTIDE1,7:R3-29:R3|PEPTIDE1,PEPTIDE1,13:R3-34:R3|PEPTIDE1,PEPTIDE1,17:R3-36:R3$$$V2.0; N-terminus and C-terminus assumed), in experiment [8], the “displacement of A-HgTx from the complexes with K-ΔKv1.3” value is listed as “displaced from the complexes with K-ΔKv1.3”. In addition, in experiment [4] (setting [10]), the “displacement of A-HgTx from Kv1.3-K” value is listed as “displaces bound A-HgTx”. Also, the “displacement of A-HgTx from K-Kv1.3” value in experiment [5] (setting [10]) was “displaces bound A-HgTx”. The “displacement of A-HgTx from K-ΔKv1.3” value in experiment [7] (setting [10]) is given as “displaces bound A-HgTx”.

The values above are taken from paper PMC9780825, “Combining mKate2-Kv1.3 Channel and Atto488-Hongotoxin for the Studies of Peptide Pore Blockers on Living Eukaryotic Cells” (Toxins, 2022).
